The test addresses T1, angiotensin I converting enzyme (ACE) (Oryctolagus cuniculus, UniProt P12822).
T1 construct: ACE (from rabbit lung; 2.0 units/mg of protein); purchased Sigma Chemical Company (St. Louis, MO, USA); host or cells: rabbit lung (tissue-derived)
T1 sequence (P12822 34-1310): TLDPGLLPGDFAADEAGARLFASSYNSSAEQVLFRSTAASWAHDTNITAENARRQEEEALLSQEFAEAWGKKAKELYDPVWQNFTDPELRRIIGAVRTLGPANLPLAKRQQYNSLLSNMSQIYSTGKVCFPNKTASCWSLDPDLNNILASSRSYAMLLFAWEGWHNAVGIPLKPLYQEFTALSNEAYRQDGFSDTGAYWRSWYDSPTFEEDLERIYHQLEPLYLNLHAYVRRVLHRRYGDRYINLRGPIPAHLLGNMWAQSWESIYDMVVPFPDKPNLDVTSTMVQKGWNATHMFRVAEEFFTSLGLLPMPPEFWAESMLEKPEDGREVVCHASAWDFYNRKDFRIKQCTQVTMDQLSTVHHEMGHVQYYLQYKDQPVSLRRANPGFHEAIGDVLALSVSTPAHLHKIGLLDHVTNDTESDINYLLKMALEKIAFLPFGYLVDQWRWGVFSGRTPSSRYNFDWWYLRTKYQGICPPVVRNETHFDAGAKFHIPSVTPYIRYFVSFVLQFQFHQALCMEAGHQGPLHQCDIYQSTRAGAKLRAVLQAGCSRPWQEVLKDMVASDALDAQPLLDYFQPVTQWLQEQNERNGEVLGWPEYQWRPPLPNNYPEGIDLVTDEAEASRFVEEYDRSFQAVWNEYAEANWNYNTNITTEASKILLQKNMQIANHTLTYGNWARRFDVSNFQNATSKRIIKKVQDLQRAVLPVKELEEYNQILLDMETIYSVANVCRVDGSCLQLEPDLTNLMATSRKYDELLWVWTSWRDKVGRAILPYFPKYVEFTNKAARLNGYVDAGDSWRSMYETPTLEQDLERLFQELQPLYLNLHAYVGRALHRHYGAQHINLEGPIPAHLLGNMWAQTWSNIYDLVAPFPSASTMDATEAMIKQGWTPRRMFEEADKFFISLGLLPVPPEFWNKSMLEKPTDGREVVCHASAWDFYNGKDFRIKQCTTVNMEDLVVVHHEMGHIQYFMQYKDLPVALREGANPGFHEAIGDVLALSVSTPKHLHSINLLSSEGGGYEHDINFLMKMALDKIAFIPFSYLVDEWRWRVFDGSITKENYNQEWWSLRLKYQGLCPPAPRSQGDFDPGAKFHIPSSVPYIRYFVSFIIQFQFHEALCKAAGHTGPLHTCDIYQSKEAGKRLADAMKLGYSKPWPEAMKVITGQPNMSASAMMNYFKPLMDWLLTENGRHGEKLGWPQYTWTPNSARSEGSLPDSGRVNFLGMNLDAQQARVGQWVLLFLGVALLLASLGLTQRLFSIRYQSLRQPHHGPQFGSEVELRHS
Put plainly: ACE inhibitory activity (IC50 and inhibitory ratio IP). The test is classed as biochemical. The following applies: ACE from rabbit lung. The protocol: Lizard fish was purchased from a local market in Nanning, China, during the fishing season. It was identified by engineer Cuican at Beihai Institute of Oceanology. Its muscle was rapidly separated, dried with hot air (90 °C) over 8 h, powdered, and then stored in the cryogenic refrigerator. Agarose (BR) and NiSO4·6H2O (AR) were purchased from Sinopharm Chemical Reagent Co., (Beijing, China). Iminodiacetic acid (IDA) was purchased from Sinopharm Chemical Reagent Co., Ltd. (Beijing, China). ACE (from rabbit lung; 2.0 units/mg of protein) and hippuryl-L-histidyl-L-leucine (HHL) were purchased from the Sigma Chemical Company (St. Louis, MO, USA). All other reagents used were of analytical grade.
The affinity column was equilibrated at a flow rate of 1.5 mL·min^−1 with PBS. […] Fractions with affinity for Ni^2+ ion were eluted and monitored at 280 nm. […] The ACE-inhibitory activity of these fractions were determined, and the inhibitory ratios (IP) were calculated according to Wu et al.. The concentrations of protein were measured by the UV method using a wavelength of 280 nm, and the protein recovery rate was calculated as follows: (1) R=m/M×100% • R—Recovery rate of protein, %; • m—Protein content of the sample eluted from IMAC (IMAC fractions), mg; • M—Protein content of the sample before treatment of IMAC chromatographic procedures, mg.

In general, IC50 refers to the midpoint of a concentration-inhibition curve.

Where a SMILES comes first, the peptide text is derived from it.

Regarding `N=C(N)NCCC[C@H](NC(=O)[C@H](Cc1ccc(O)cc1)NC(=O)[C@@H](N)CCCNC(=N)N)C(=O)N1CCC[C@H]1C(=O)O` [RYRP, Arg-Tyr-Arg-Pro] (H-RYRP-OH), for the setting “ACE inhibition, HHL listed as material, inhibitory ratios calculated according to Wu et al. [22]”, the concentration for half-maximal inhibition (IC50) is 52 µM. Besides, the “IP% (inhibitory activity of fractions separated by RP-HPLC)” value (RP-HPLC fractions of F2 (Zorbax SB C18), inhibitory ratio according to Wu et al. [22], test concentration not given) was 73.05%.
